The values that follow come from patent publication US20090105149A1, “Compounds comprising lpa” (ENKAM PHARMACEUTICALS A/S, priority 2003, published 2009).

The assay relates to rats treated with (25-35) β-amyloid fragment. Description: Open Field test, (25-35) β-amyloid fragment rat model. Type of assay: in vivo. The following applies: day 14; for time spent exploring holes / time spent rearing: sub-occipital, days 7, 10, 13. On the procedure:
The peptide was applied sub-occipitally at days 7, 10, and 13 after the (25-35) β-amyloid fragment induced neurotoxicity. […] The number of animals per group varied from 9 to 11. ‘A-β’ and ‘V’ are the abbreviations of the (25-35) β-amyloid fragment and vehicle, respectively. The results were analysed using unpaired t-test and significance of results was contingent on achieving a p-value of less than 0.05 (*p<0.05, **p<0.01), when compared with the first measurement period (1-3 min.).
The present study employed a rat model, in which neurotoxicity and cognitive impairment were induced by the (25-35) β-amyloid peptide fragment (see Maurice T., et al. (1996) (Brain Res. 706:181-93) and Delobette S., et al. (1997) Eur J Pharmacol. 319:1-4). Short-term memory deficit induced by the (25-35) β-amyloid peptide fragment in rat is of special importance to study, as it resembles one of the clinical manifestations of Alzheimer's disease. Short-term memory deficit in rats was evaluated using three different behavioural tests: the Social Recognition (Kogan et al, (2000) Hippocampus 10:47-56), Open Field (Cerbone and Sadile, (1994) Neurosci Biobehav Rev. 18:497-518; Vianna et al, (2000) Learn Mem. 7:333-40) and Y-maze (Clayton & Williams, (2000) Neurobiol Learn Mem. 74:135-45) tests. In addition, neuropathological investigations were performed on brain tissue collected at the time of sacrifice. The FGL peptide was administered either sub-occipitally or intranasally.
Behaviour of animals was evaluated using the Social Recognition test, the Open Field test or the Light-dark Discriminating γ-maze. On day 28-30 or day 51 after i.c.v. administration of the (25-35) β-amyloid fragment, the animals were sacrificed, and in selected studies, the brain tissue was collected, histological sections were immunostained with A-β specific antibodies and the amyloid-burden was calculated as a percentage of the A-βpositive area. In addition, the number of neurons in selected areas of brain-sections was calculated using a stereological approach.

On to “FGLd: MAP-type dendrimer of FGL; dendrimeric tetramer of the FGL peptide (EVYVVAENQQGKSKA)”, for which the locomotion activity entry was “unaffected”. Further, for the setting “first measurement period”, the “time spent exploring holes” value turned out to be 3.3 s and the time spent rearing is listed as 7.0 s. Further, where the note is “last measurement period”, the “time spent exploring holes” value worked out at 0.1 s and the time spent rearing is 0.7 s.
